Where a name gives a salt, the structure may show the parent alone. Read-outs that look alike come from different tables or passages of the source.
Key:
[1] = system: Immunologically Stimulated Human Basophils; assay: Inhibition of Histamine Release from Immunologically Stimulated Human Basophils; format: cell-based; settings: anti-IgE or antigen stimulated, 60 min, 37° C., read-out: ED50 (concentration which causes 50% inhibition of histamine release)
Protocol: The novel compounds of this invention have been tested by the procedure of Lichtenstein, L. M. and Osler, A. G., J. Exp. Med., 120, 507-530 (1964), which evaluates the ability of compounds to inhibit mediator (histamine) release from immunologically stimulated human basophils. 10X Concentrated Tris Buffer Dissolve 140.3 g of sodium chloride, 7.45 g of potassium chloride and 74.5 g of Trizma-Tris Pre-Set, Reagent Grade, pH 7.6, at 25° C. (Sigma Chemical Co.) in sufficient water to give a final volume of 2 liters. Human Albumin (Sigma Chemical Co.) (30 mg/ml) Calcium and Magnesium Stocks Made to 0.075M and 0.5M respectively, with calcium chloride dihydrate and magnesium chloride hexahydrate. Tris-A Buffer A 10 ml portion of 10X Tris Buffer and 1.0 ml of human albumin are diluted to 100 ml with water. Tris ACM Buffer A 10 ml portion of 10X Tris Buffer, 1.0 ml of human albumin, 0.8 ml of calcium stock and 0.2 ml of magnesium stock are diluted to 100 ml with water. Rabbit Antihuman IgE Behring Diagnostics (Generally used at 10 μg protein/ml final concentration.) House Dust Mite Extract (Dermatophagoides Farinae) Strength 1:100 (w:v) allergenic extract, Hollister-Stier Labs. Generally this is diluted 1:1000 to 1:10,000 (considering the vial as stock). Other Allergens Intradermal solutions or intramuscular preparations for hyposensitization, Hollister-Stier Labs. The final concentration used is on the order of 1 PNU/ml. Separation of Leukocytes from Human Blood and Challenge Eighty milliliters of blood is withdrawn from subjects with known histamine release to anti-IgE, ragweed antigen or other specific allergen, using four 20 ml heparinized tubes. This 80 ml of blood is mixed with 20 ml of saline containing 0.6 g of dextrose and 1.2 g of dextran. The blood is allowed to sediment at room temperature in two 50 ml polycarbonate centrifuge tubes until a sharp interface develops between the red cells and plasma (60-90 minutes). The plasma (top) layer from each tube is withdrawn by pipet and transferred to respective 50 ml polycarbonate tubes. The plasma is centrifuged for 8 minutes at 110×G at 4° C. The supernatant is carefully poured off as completely as possible and the cell button is resuspended in 2-3 ml of Tris-A buffer using a siliconized Pasteur pipet. The resuspension is accomplished by drawing the liquid gently in an out of the pipet, with the tip below the liquid, until an even suspension of cells is obtained. Sufficient Tris-A buffer is then added to bring the volume in the tube to about 45 ml and the tube is centrifuged at 110×G for 8 minutes at 4° C. The supernatant is poured off and the cell button is resuspended and centrifuged as described above. The supernatant is poured off and the cell button suspended in 2-3 ml of Tris-ACM buffer to make the final volume sufficient to allow addition to the reaction tubes. Reaction tubes containing anti-IgE or antigens, either alone or with test compound in a total volume of 0.2 ml are prepared and placed in a 37° C. bath. The cells are warmed to 37° C. and frequently swirled to ensure an even suspension, while 1.0 ml aliquots are added to each reaction tube. The tubes are then incubated for 60 minutes at 37° C., vortexing the tubes gently every 15 minutes to keep the cells evenly suspended. When the reaction is complete, the tubes are centrifuged at 4° C. for 10 minutes at 1500 rpm to sediment the cells. One ml aliquots of supernatant are transferred to 12 mm by 75 mm polyethylene tubes and 0.2 ml of 8% perchloric acid is added to each tube. Blanks and totals are included in each test. The blanks have cells and all reagents except antigen or anti-IgE. The totals contain 0.24 ml of 8% perchloric acid, one ml of cells and 0.2 ml of buffer. All samples are then centrifuged to remove the precipitate protein. Assay of Released Histamine by the Automated Fluorometric Method This automated method has been described by Siraganian, R. P., in Anal. Biochem., 57, 383 (1974) and J. Immunol. […]

Neutrophil Lipoxygenase = target: T1, Neutrophil Lipoxygenase (Cavia porcellus, UniProt A0A286X958); assay: Inhibition of Neutrophil Lipoxygenase from Immunologically Stimulated Guinea Pig Neutrophiles (LTB4 and 5-HETE); format: cell-based; settings: 10 μg/ml, 100 μM arachidonic acid and 20 μM A23187, the lower the percentage, the more active
T1 construct: endogenous in cells; host or cells: guinea pig peritoneal neutrophils
T1 sequence (A0A286X958 1-674): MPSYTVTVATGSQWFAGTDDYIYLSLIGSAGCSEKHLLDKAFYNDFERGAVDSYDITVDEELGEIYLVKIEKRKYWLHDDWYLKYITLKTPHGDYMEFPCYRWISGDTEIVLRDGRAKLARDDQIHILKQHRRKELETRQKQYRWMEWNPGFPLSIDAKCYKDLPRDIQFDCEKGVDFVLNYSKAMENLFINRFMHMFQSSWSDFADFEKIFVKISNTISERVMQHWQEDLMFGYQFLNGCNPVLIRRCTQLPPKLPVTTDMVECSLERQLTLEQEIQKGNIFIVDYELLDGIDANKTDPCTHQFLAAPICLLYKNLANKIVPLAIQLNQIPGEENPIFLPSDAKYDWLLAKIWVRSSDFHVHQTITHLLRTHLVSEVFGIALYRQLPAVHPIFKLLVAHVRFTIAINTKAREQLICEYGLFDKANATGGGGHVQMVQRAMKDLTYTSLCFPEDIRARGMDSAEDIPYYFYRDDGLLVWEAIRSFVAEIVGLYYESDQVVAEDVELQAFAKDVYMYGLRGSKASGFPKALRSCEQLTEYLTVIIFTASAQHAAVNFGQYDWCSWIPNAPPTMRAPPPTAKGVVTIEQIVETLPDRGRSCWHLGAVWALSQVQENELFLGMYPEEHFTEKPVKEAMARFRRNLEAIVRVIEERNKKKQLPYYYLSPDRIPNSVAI
Protocol: In this assay 3×10^7 peritoneal neutrophils derived from guinea pigs were incubated at 37° C. in Dulbeccos buffer containing 50 mM tris buffer (pH 7.4). Five minutes before the addition of 100 μM arachidonic acid and 20 μM calcium ionophore (A23187), control vehicle or the test compounds were added to the neutrophils at a concentration of 10 μg/ml. Three minutes after the addition of arachidonic acid and calcium ionophore the total lipid was partitioned into chloroform after adjusting the pH to 3 with citric acid and the addition of equal parts of methanol and chloroform. The 5-HETE and LTB4 were resolved by HPLC using a 5 μM, 4×25 cm octadecyl silica column (IBM Instruments) with 70-80% methanol in water adjusted to pH 3.0 with acetic acid. As the mobile phase was pumped at 1.0 ml/minute, LTB4 and 5-HETE were detected by absorbance at 270 and 236 nm, respectively. LTB4 and 5-HETE were quantitated by comparison with the control and the results were expressed as a percent of control.

5-HETE, % of Control (Neutrophil Lipoxygenase)	LTB4, % of Control (Neutrophil Lipoxygenase)	IC50 ([1]; Homo sapiens, 1 h) [µM]	remaining activity at 10 µg/mL (Neutrophil Lipoxygenase; read-out: 5-HETE, % of Control) [%]	remaining activity at 10 µg/mL (Neutrophil Lipoxygenase; read-out: LTB4, % of Control) [%]	Compound	other results
6.9 % of Control	9.3 % of Control				CCOC(=O)N1CCN(C2=C(Cl)C(=O)c3ccccc3C2=O)CC1.Cl [Example 16, 4-(3-chloro-1,4-dihydro-1,4-dioxo-2-naphthalenyl)-1-piperazinecarboxylic acid, ethyl ester, hydrochloride]	IC50 ([1]; e, hydrochloride): 1.5 µM
		14.9			O=C1C(Cl)=C(N2CCN(CC(=O)N3CCCC3)CC2)C(=O)c2ccccc21 [Example 7, 1-[[4-(3-chloro-1,4-dihydro-1,4-dioxo-2-naphthalenyl)-1-piperazinyl]acetyl]pyrrolidine]	
0 % of Control	0 % of Control	10.4			O=C1C(Cl)=C(N2CCN(Cc3ccccc3)CC2)C(=O)c2ccccc21 [Example 5, 2-chloro-3-[4-(phenylmethyl)-1-piperazinyl]-1,4-naphthalenedione]	
		6.4	0.2	0	CN(CCNCc1nc2ccccc2s1)C1=C(Cl)C(=O)c2ccccc2C1=O [Example 9, 2-[[2-(2-benzothiazolylmethylamino)ethyl]methylamino]-3-chloro-1,4-naphthalenedione]	
		4			CN(CCN(C)C1=C(Cl)C(=O)c2ccccc2C1=O)Cc1ccccc1 [Example 2, 2-Chloro-3-[methyl[2-[methyl(phenylmethyl)amino]ethyl]amino]-1,4-naphthalenedione, hydrochloride]	
		20.6			O=C1C(Cl)=C(N2CCN(CC(=O)N3CCOCC3)CC2)C(=O)c2ccccc21 [Example 6, 4-[[4-(3-chloro-1,4-dihydro-1,4-dioxo-2-naphthalenyl)-1-piperazinyl]acetyl]morpholine]	
		4.6	1.3	6.1	O=C1C(Cl)=C(N2CCN(c3ccccn3)CC2)C(=O)c2ccccc21 [Example 8, 2-chloro-3-[4-(2-pyridinyl)-1-piperazinyl]-1,4-naphthalenedione, hydrochloride]	

Further lines, the compound ahead of its results:

Compound	5-HETE, % of Control (Neutrophil Lipoxygenase)	LTB4, % of Control (Neutrophil Lipoxygenase)	IC50 ([1]; Homo sapiens, 1 h) [µM]	remaining activity at 10 µg/mL (Neutrophil Lipoxygenase; read-out: 5-HETE, % of Control) [%]	remaining activity at 10 µg/mL (Neutrophil Lipoxygenase; read-out: LTB4, % of Control) [%]	other results
CCOC(=O)N1CCN(C2=C(Cl)C(=O)c3ccccc3C2=O)CC1 [Example 1, 4-(3-Chloro-1,4-dioxo-2-naphthyl)-1-piperazinecarboxylic acid, ethyl ester]	0 % of Control	0 % of Control				IC50 ([1]; ethyl ester): 5.5 µM
CC1CN(C2=C(Cl)C(=O)c3ccccc3C2=O)CCN1 (centres unmarked) [Example 14, 2-chloro-3-(3-methyl-1-piperazinyl)-1,4-naphthalenedione]			3			
O=C1C(Cl)=C(N2CCN(C(=O)c3ccccc3Cl)CC2)C(=O)c2ccccc21 [Example 34, 1-(2-chlorobenzoyl)-4-(3-chloro-1,4-dihydro-1,4-dioxo-2-naphthalenyl)piperazine]			1.8			
CC(C)COC(=O)N1CCN(C2=C(Cl)C(=O)c3ccccc3C2=O)CC1 [Example 33, 4-(3-Chloro-1,4-dihydro-1,4-dioxo-2-naphthalenyl)-1-piperazinecarboxylic acid, 2-methylpropyl ester]			16.5	31.6	27.4	
O=C1C(Cl)=C(N2CCN(c3nc4ccccc4s3)CC2)C(=O)c2ccccc21 [Example 17, 2-[4-(2-benzothiazolyl)-1-piperazinyl]-3-chloro-1,4-naphthalenedione, hydrochloride]			5.4	23.1	32.6	
Cl.O=C1C(Cl)=C(N2CCN(Cc3ccccc3)CC2)C(=O)c2ccccc21 [Example 15, 2-chloro-3-[4-(phenylmethyl)-1-piperazinyl]-1,4-naphthalenedione, hydrochloride]	35.6 % of Control	28.3 % of Control				IC50 ([1]; hydrochloride): 13.4 µM

Reference: patent US4686220A, “Substituted 2-[b-substituted-amino)-ethylamino]-1,4-naphthalenediones for treating asthma, allergic diseases and inflammation in warm-blooded animals” (American Cyanamid Company, priority 1985, dated 1987)
